The supplement of paper PMC10307832

Legend:
Assay in all cases: relative viability (nuclei count vs DMSO), 5 days (fraction); higher = more cells survive
AZ505 + AZD7762 = compound: C1CCC(CC1)N(CCNCCC2=C3C(=C(C=C2)O)NC(=O)CO3)C(=O)CCNCCC4=CC(=C(C=C4)Cl)Cl [AZ505] + NC(=O)Nc1cc(-c2cccc(F)c2)sc1C(=O)N[C@H]1CCCNC1 [AZD7762] (partner 0.2 µM)
Method in brief: (§1)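 For relative viability, nuclei counts in treated wells were divided by those in vehicle wells. Lung cancer cell lines had been pin-tool dosed in 1536-well plates the day after seeding and cultured for 5 days, then fixed and stained in one step (final 0.05% Triton X-100, 1% formaldehyde, 1 ug/ml Hoechst) and imaged at 4×. Doses were one drug alone or a fixed anchor-drug dose plus five library-drug doses (not always all listed) in √10 steps, and values are duplicate-plate medians.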

Dactolisib + Phenformin = compound: Cn1c(=O)n(-c2ccc(C(C)(C)C#N)cc2)c2c3cc(-c4cnc5ccccc5c4)ccc3ncc21 [Dactolisib] + N=C(N)NC(=N)NCCc1ccccc1 [Phenformin] (partner 250 µM)
Method in brief: as §1

AZ505 + Tozasertib = compound: C1CCC(CC1)N(CCNCCC2=C3C(=C(C=C2)O)NC(=O)CO3)C(=O)CCNCCC4=CC(=C(C=C4)Cl)Cl [AZ505] + Cc1cc(Nc2cc(N3CCN(C)CC3)nc(Sc3ccc(NC(=O)C4CC4)cc3)n2)n[nH]1 [Tozasertib] (partner 0.1 µM)
Method in brief: as §1

AZ505 + Pemetrexed = compound: C1CCC(CC1)N(CCNCCC2=C3C(=C(C=C2)O)NC(=O)CO3)C(=O)CCNCCC4=CC(=C(C=C4)Cl)Cl [AZ505] + Nc1nc2[nH]cc(CCc3ccc(C(=O)N[C@@H](CCC(=O)O)C(=O)O)cc3)c2c(=O)[nH]1 [Pemetrexed] (partner 0.2 µM)
Method in brief: as §1

Cell Line | relative viability (AZ505 + AZD7762; first compound 0.08 µM) | relative viability (AZ505 + AZD7762; first compound 0.253 µM) | relative viability (AZ505 + AZD7762; first compound 0.8 µM) | relative viability (AZ505 + AZD7762; first compound 2.53 µM) | relative viability (AZ505 + AZD7762; first compound 8 µM) | relative viability (Dactolisib + Phenformin; first compound 0.002 µM) | relative viability (Dactolisib + Phenformin; first compound 0.006325 µM) | relative viability (Dactolisib + Phenformin; first compound 0.02 µM) | relative viability (Dactolisib + Phenformin; first compound 0.06325 µM) | relative viability (Dactolisib + Phenformin; first compound 0.2 µM) | relative viability (AZ505 + Tozasertib; first compound 0.08 µM) | relative viability (AZ505 + Tozasertib; first compound 0.253 µM) | relative viability (AZ505 + Tozasertib; first compound 0.8 µM) | relative viability (AZ505 + Tozasertib; first compound 2.53 µM) | relative viability (AZ505 + Tozasertib; first compound 8 µM) | relative viability (AZ505 + Pemetrexed; first compound 0.08 µM) | relative viability (AZ505 + Pemetrexed; first compound 0.253 µM) | relative viability (AZ505 + Pemetrexed; first compound 0.8 µM) | relative viability (AZ505 + Pemetrexed; first compound 2.53 µM) | relative viability (AZ505 + Pemetrexed; first compound 8 µM)
NCI-H1437 | 1.07 | 1.17 | 1.08 | 1.14 | 1.17 | 0.27 | 0.341 | 0.323 | 0.296 | 0.289 | 0.396 | 0.424 | 0.382 | 0.391 | 0.403 | 0.334 | 0.314 | 0.29 | 0.336 | 0.322
NCI-H1651 | 0.43 | 0.412 | 0.472 | 0.467 | 0.48 | 0.333 | 0.279 | 0.305 | 0.243 | 0.204 | 0.65 | 0.784 | 0.633 | 0.725 | 0.606 | 0.529 | 0.557 | 0.608 | 0.679 | 0.6
NCI-H1666 | 0.791 | 0.853 | 0.844 | 0.852 | 0.946 | 0.593 | 0.53 | 0.577 | 0.544 | 0.559 | 0.629 | 0.613 | 0.534 | 0.525 | 0.584 | 0.81 | 0.835 | 0.736 | 0.85 | 0.841
NCI-H1734 | 0.519 | 0.333 | 0.526 | 0.494 | 0.576 | 0.428 | 0.333 | 0.353 | 0.238 | 0.203 | 0.259 | 0.276 | 0.243 | 0.219 | 0.215 | 0.405 | 0.351 | 0.392 | 0.398 | 0.416
NCI-H1755 | 0.348 | 0.471 | 0.495 | 0.421 | 0.432 | 0.647 | 0.617 | 0.612 | 0.549 | 0.476 | 0.526 | 0.595 | 0.602 | 0.646 | 0.564 | 0.474 | 0.452 | 0.402 | 0.44 | 0.461
NCI-H1793 | 0.466 | 0.513 | 0.574 | 0.404 | 0.407 | 0.477 | 0.294 | 0.228 | 0.202 | 0.187 | 0.392 | 0.346 | 0.386 |  | 0.384 | 0.863 | 0.756 | 0.878 | 0.851 | 1.06
NCI-H1915 | 0.707 | 0.753 | 0.7 | 0.727 | 0.716 | 0.376 | 0.387 | 0.391 | 0.344 | 0.327 | 0.422 | 0.447 | 0.432 | 0.416 | 0.399 | 0.541 | 0.492 | 0.534 | 0.614 | 0.525
NCI-H1944 | 0.455 | 0.519 | 0.727 | 0.389 | 0.474 | 0.235 | 0.21 | 0.187 | 0.138 | 0.14 | 0.248 | 0.249 | 0.24 | 0.236 | 0.236 | 0.748 | 0.558 | 0.796 | 0.499 | 0.597
NCI-H1975 | 0.674 | 0.614 | 0.765 | 0.703 | 0.81 | 0.435 | 0.382 | 0.376 | 0.216 | 0.162 | 0.649 | 0.733 | 0.731 | 0.638 | 0.741 | 0.289 | 0.311 | 0.309 | 0.307 | 0.301
NCI-H1993 | 0.629 | 0.722 | 0.609 | 0.854 | 0.943 | 0.486 | 0.509 | 0.518 | 0.5 | 0.572 | 0.611 | 0.529 | 0.58 | 0.539 | 0.529 | 0.63 | 0.66 | 0.568 | 0.651 | 0.677
NCI-H2085 | 0.879 | 0.966 | 0.847 | 0.968 | 0.954 | 0.839 | 0.689 | 0.524 | 0.348 | 0.281 | 0.663 | 0.786 | 0.823 | 0.825 | 0.891 | 0.832 | 0.758 | 0.78 | 0.835 | 0.965
NCI-H2087 | 1.22 | 1.24 | 1.35 | 1.15 | 1.24 | 0.622 | 0.454 | 0.378 | 0.286 | 0.123 | 0.223 | 0.181 | 0.244 | 0.241 | 0.245 | 0.616 | 0.614 | 0.691 | 0.741 | 0.696
NCI-H2126 | 0.939 | 1.02 | 1.02 | 0.985 | 1.08 | 0.562 | 0.513 | 0.534 | 0.435 | 0.366 | 0.816 | 0.809 | 0.821 | 0.806 | 0.892 | 0.58 | 0.628 | 0.719 | 0.713 | 0.629
NCI-H2170 | 0.825 | 0.901 | 0.821 | 0.92 | 0.966 | 0.454 | 0.433 | 0.48 | 0.434 | 0.284 | 0.845 | 0.715 | 0.641 | 0.741 | 0.766 | 0.254 | 0.257 | 0.238 | 0.253 | 0.264
NCI-H2342 | 0.538 | 0.488 | 0.489 | 0.686 | 0.563 | 0.492 | 0.64 | 0.54 | 0.559 | 0.525 | 0.441 | 0.625 | 0.559 | 0.509 | 0.618 | 0.711 | 0.737 | 0.836 | 0.776 | 0.853
NCI-H2347 | 0.548 | 0.659 | 0.554 | 0.553 | 0.578 | 0.731 | 0.409 | 0.381 | 0.329 | 0.264 | 0.492 |  |  |  | 0.54 | 0.392 | 0.367 | 0.428 | 0.387 | 0.428
